According to patent publication US6451576B1, “Sesquiterpene synthases from grand fir (Abies grandis), and methods of use” (Washington State University Research Foundation, priority 1998, dated 2002):

Target: T1, δ-selinene synthase (SEQ ID No:20) (Abies grandis, UniProt O64404)
T1 construct: made in house; host or cells: E. coli XL1-Blue/pGAG4 or E. coli BL21(DE3)/pSBAG4
T1 sequence (O64404 1-581): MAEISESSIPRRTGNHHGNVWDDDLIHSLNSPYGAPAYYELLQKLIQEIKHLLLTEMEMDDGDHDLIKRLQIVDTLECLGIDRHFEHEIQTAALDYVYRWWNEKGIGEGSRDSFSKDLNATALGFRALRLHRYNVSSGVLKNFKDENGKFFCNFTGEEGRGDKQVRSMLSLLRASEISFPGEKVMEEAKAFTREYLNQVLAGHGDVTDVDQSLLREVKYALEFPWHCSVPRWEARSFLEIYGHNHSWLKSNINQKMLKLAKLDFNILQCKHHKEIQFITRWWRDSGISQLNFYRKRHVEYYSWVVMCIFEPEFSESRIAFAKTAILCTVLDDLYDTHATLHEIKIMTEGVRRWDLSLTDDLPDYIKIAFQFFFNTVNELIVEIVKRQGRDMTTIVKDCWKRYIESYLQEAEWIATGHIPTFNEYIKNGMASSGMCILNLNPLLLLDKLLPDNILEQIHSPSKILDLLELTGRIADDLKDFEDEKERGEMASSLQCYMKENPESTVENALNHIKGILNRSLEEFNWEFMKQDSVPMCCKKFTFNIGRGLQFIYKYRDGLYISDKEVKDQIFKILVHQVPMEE
Assay: Kinetic parameters, metal ion requirement and substrate specificity of recombinant δ-selinene synthase
Assay type: biochemical
Description: The assay for recombinant sesquiterpene synthase (cyclase) activity was performed in 1 ml of buffer (extraction buffer without MnCl2 or the polymeric adsorbents) containing 3.5 μM [1-^3H]farnesyl diphosphate and the total protein extracted from a 5 ml bacterial culture to produce 10^5-10^6 dpm of product in 2 h at 31° C. The incubation mixture was overlaid with 1 ml pentane to trap volatile products. After incubation, the reaction mixture was extracted with pentane (3×1 ml) and the combined extract was passed through a MgSO4-silica gel column to provide the terpene hydrocarbon fractions as before. The columns were subsequently eluted with 3×1 ml of ether to collect any oxygenated products, and an aliquot of each fraction was taken for liquid scintillation counting to determine conversion rate. The monoterpene synthase and diterpene synthase activity assays were similarly performed as described in detail elsewhere (LaFever, R. E., et al., (1994) Arch. Biochem. Biophys. 313, 139-149; Bohlmann, J., et al., (1997) J. Biol. Chem. 272, 21784-21792; Lewinsohn, E., et al., (1991) Plant Physiol. 96, 38-43).
The substrate specificity and other kinetic. parameters of γ-humulene synthase (SEQ ID No:24) and δ-selinene synthase (SEQ ID No:20) were investigated in order to confirm the identification and classification of these enzymes. […] Neither of these sesquiterpene synthases requires K^+ or other monovalent cation for activity.
Substrate specificity of δ-selinene synthase (SEQ ID No:20) and γ-humulene synthase (SEQ ID No:24) was evaluated by comparing farnesyl diphosphate (C15) to geranyl diphosphate (C10) and geranylgeranyl diphosphate (C20) at saturation as precursors of the respective terpene olefins. […] The identities of the monoterpene products produced by the sesquiterpene synthases were determined by GLC-MS and are set forth in FIG. 4.

SMILES | olefin formation from substrate at saturation, compared with farnesyl diphosphate
CC(C)=CCC/C(C)=C/COP(=O)(O)OP(=O)(O)O [geranyl diphosphate, reference compound] | roughly half the rate
CC(C)=CCC/C(C)=C/CC/C(C)=C/CC/C(C)=C/COP(=O)(O)OP(=O)(O)O [geranylgeranyl diphosphate, reference compound] | failed to generate detectable olefinic products
